Measurements reported in patent US20060074073A1, “Therapeutic combinations comprising poly (ADP-ribose) polymerases inhibitor” (AGOURON PHARMACEUTICALS, INC., priority 2004, published 2006).
“And” between values parts separate entries of the source, which are not always exact repeats. Equal entries are not always repeated.

Legend:
[1] = test system: LoVo cells; experiment: Inhibition of potentially lethal damage recovery, colony formation; format: cell-based; conditions: 8 Gy + 0.4 μM compound
Description: A contributory factor to radiation resistance in vivo is the ability of quiescent cells to repair potentially lethal damage (PLD) (Weichselbaum, R. R. and Little, J. B. The differential response of human tumors to fractionated radiation may be due to a post-irradiation repair process. Br. J. Cancer 1982; 46: 532-537). In vitro models of PLD measure the increase in survival of irradiated, growth arrested cells following delayed plating for colony formation. Recovery from potentially lethal damage was measured in vitro using LoVo cells that had been arrested in G1 phase by growing to confluence to mimic the radio-resistant quiescent cell population in tumors. Cells were exposed to 8 Gy of γ-irradiation (Gammacel 1000 Elite, Nordian International Inc. Canada), and either harvested and plated for colony formation assay immediately or maintained as growth arrested confluent cultures for a 24-hour recovery period before harvesting and plating for the colony formation assay. Where indicated, 0.4 μM compound Formula 1 was added 30 minutes before irradiation and was present throughout the recovery incubation.

[2] = test system: LoVo xenografts; experiment: Tumor growth delay with X-irradiation, LoVo xenografts; format: in vivo
Protocol: The experimental endpoint was defined to be the time required for relative tumor volume to increase to four times the volume measured at the start of treatment (RTV4). Growth delays were calculated from the difference in time taken to achieve RTV4 (days) between IR/Formula 1 treated tumors and untreated controls.

SMILES: CNCc1ccc(-c2[nH]c3cc(F)cc4c3c2CCNC4=O)cc1 [compound of formula 1, 8-fluoro-2-{4-[(methylamino)methyl]phenyl}-1,3,4,5-tetrahydro-6H-azepino[5,4,3-cd]indol-6-one]
- % PLDR ([1]; 100 × (survival at 24 hr-survival at 0 time)/survival at 0 time): 211 ± 184%
- Survival at 0 time ([1]; G1-arrested): 0.02 ± 0.01
- Survival at 24 hr ([1]; G1-arrested): 0.057 ± 0.038
- inhibition at 0.4 µM ([1]; Homo sapiens, mean of 3 independent experiments, read-out: Inhibition of PLDR): 64.9%
- Enhancement (%) ([2]; IR 2 Gy + 0.15 mg/kg i.p. 30 minutes before, daily × 5, 0.15 mg/kg): 36% and 36^e %
- Enhancement (%) ([2]; IR 2 Gy + 15 mg/kg i.p. 30 minutes before, daily × 5, 15 mg/kg): 36% and 36^f %
